Patent US20220380378A1 (ESSA Pharma, Inc., priority 2021, published 2022)

target: T1, androgen receptor (AR) (Homo sapiens, UniProt P10275, T878A); assay: Androgen-induced PSA (6.1 kb)-luciferase reporter assay in LNCaP cells (R1881 1 nM); assay type: cell-based; design: endogenous in cells; host or cells: LNCaP; conditions: 24 h, read-out: PSA-Luc IC50 Range
T1 sequence (P10275 1-920 T878A): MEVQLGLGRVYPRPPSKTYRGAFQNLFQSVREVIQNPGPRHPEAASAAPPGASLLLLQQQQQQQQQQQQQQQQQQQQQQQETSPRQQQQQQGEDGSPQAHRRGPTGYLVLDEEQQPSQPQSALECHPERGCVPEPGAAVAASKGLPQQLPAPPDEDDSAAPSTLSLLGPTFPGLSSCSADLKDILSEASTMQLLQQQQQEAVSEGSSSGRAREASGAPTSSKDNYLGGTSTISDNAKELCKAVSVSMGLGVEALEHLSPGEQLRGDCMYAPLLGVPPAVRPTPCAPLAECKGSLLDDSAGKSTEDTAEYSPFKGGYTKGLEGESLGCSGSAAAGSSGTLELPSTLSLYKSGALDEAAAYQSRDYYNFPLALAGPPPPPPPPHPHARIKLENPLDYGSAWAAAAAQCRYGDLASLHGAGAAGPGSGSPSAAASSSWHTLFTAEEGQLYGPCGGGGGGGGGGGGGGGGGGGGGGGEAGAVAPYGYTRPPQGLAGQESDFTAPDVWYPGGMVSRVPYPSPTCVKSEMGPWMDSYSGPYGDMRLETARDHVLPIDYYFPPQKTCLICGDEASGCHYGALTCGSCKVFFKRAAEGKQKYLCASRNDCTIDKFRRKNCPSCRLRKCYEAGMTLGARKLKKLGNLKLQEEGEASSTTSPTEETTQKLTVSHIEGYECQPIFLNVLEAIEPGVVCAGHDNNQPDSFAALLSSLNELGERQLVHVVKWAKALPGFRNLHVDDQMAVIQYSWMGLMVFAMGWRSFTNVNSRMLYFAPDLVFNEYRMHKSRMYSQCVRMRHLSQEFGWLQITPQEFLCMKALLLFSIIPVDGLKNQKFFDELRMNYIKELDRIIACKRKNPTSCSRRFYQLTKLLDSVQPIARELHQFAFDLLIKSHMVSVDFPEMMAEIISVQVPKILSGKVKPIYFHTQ
Description: The PSA (6.1 kb)-luciferase reporter contains functional AREs (androgen response elements) to which AR binds in response to androgen to induce luciferase activity. LNCaP cells were transiently transfected with the PSA (6.1 kb)-luciferase reporter for 24 h, and then pretreated with vehicle (DMSO) or indicated concentration of representative compounds for one hour prior to the addition of synthetic androgen, R1881 (1 nM). After 24 h of incubation with R1881, the cells were harvested, and relative luciferase activities were determined (FIG. 1). To determine the IC50, treatments were normalized to vehicle control activity induced by R1881 (Table 2).
Luciferase Assay: Cells were lysed using Passive Lysis Buffer (Promega) and then collected into V-bottom 96-well tissue culture plates. Lysates were centrifuged at 4° C. for 5 minutes at 3000 rpm. To measure luminescence of LNCaP cell lysates the Firefly Luciferase Assay System (Promega) was employed, according to manufacturer's protocol. Relative luminescence units (RLU) in cell lysates were detected for 10 seconds using Promega GloMax-Multi Detection Luminometer (Promega). Values were normalized to protein content. GraphPad Prism graphing software was used to calculate IC50 values.
Statistical analyses were performed using GraphPad Prism (Version 6.01 for Windows; La Jolla, Calif., USA). Comparisons between treatment and control groups were compared using Two-Way ANOVA with post-hoc Dunnett's and Tukey's tests. Differences were considered statistically significant at P values less than 0.05.

Row | SMILES | IC50 [nM]
1 | CC(C)(c1ccc(OCc2ccnc(NS(C)(=O)=O)n2)cc1)c1cc(Cl)c(-c2ccc(Cl)cc2)c(C#N)c1 [Compound A2, N-(4-((4-(2-(2,4′-dichloro-6-cyano-[1,1′-biphenyl]-4-yl)propan-2-yl)phenoxy)methyl)pyrimidin-2-yl)methanesulfonamide] | > 2000
2 | CCNc1ncc2cc(-c3ccc(C(C)(C)c4cc(Cl)c(OCCCl)c(C#N)c4)cc3)ccc2n1 [Compound A176] | > 2000
3 | COCc1c(F)cc(-n2ccc3cc(OCc4ccnc(NS(C)(=O)=O)n4)ccc32)cc1Cl [Compound A74] | 500 to 2000
4 | CC(C)(c1ccc(-c2c[nH]c3nc(NS(C)(=O)=O)ncc23)cc1)c1cc(Cl)c(OCCCl)c(C#N)c1 [Compound A198] | 500 to 2000
5 | CS(=O)(=O)N1CCC(CCOc2ccc3c(ccn3-c3cc(Cl)c(OCCCl)c(C#N)c3)c2)CC1 [Compound A190] | > 2000
6 | CS(=O)(=O)N1CCN(CCc2ccc3c(ccn3-c3cc(Cl)c(OCCCl)c(C#N)c3)c2)CC1 [Compound A124] | 500 to 2000
7 | CS(=O)(=O)Nc1ccn(CCc2ccc3c(ccn3-c3cc(Cl)c(OCCCl)c(C#N)c3)c2)c(=O)c1 [Compound A81] | > 2000
8 | CC(C)(c1ccc(-c2cnc3nc(NS(C)(=O)=O)cnc3c2)cc1)c1cc(Cl)c(OCCCl)c(C#N)c1 [Compound A195] | > 2000
9 | CC(C)(c1ccc(OCc2cccc(S(C)(=O)=O)c2)cc1)c1cc(Cl)c(OCCCl)c(C#N)c1 [Compound A47] | 500 to 2000
10 | CC(C)(c1ccc(Oc2cccc3nc(NS(C)(=O)=O)ncc23)cc1)c1cc(Cl)c(OCCCl)c(C#N)c1 [Compound A117] | 500 to 2000
11 | CC(C)(c1ccc(OCc2ncc(NS(C)(=O)=O)nc2N)cc1)c1cc(Cl)c(OCCCl)c(C#N)c1 [Compound A43] | < 500
12 | CS(=O)(=O)Nc1ncc(COc2ccc3c(ccn3-c3cc(Cl)c(OCCCl)c(C#N)c3)c2)cn1 [Compound A29, N-(5-(((1-(3-chloro-4-(2-chloroethoxy)-5-cyanophenyl)-1H-indol-5-yl)oxy)methyl)pyrimidin-2-yl)methanesulfonamide] | 500 to 2000
13 | CC(C)(c1ccc(OCc2nccnc2N)cc1)c1cc(Cl)c(OCCCl)c(C#N)c1 [Compound A95] | < 500
14 | N#Cc1cc(-n2ccc3cc(OCc4c[nH]nn4)ccc32)cc(Cl)c1OCCCl [Compound A54] | 500 to 2000
15 | CS(=O)(=O)Nc1cnn(CCc2ccc3c(ccn3-c3cc(Cl)c(OCCCl)c(C#N)c3)c2)c1 [Compound A84] | > 2000
16 | CC(C)(c1ccc(-c2ccc3cnc(NS(C)(=O)=O)nc3c2)cc1)c1cc(Cl)c(OCCCl)c(C#N)c1 [Compound A121] | > 2000

Row | SMILES | IC50 [nM]
17 | CS(=O)(=O)Nc1ncc2cc(-c3ccc4c(ccn4-c4cc(Cl)c(OCCCl)c(C#N)c4)c3)ccc2n1 [Compound A122] | > 2000
18 | CS(=O)(=O)Nc1ncc(Cn2cc3c(-c4cc(Cl)c(OCCCl)c(C#N)c4)cccc3n2)cn1 [Compound A161] | > 2000
19 | CC(C)(c1ccc(OCc2ccnc(NS(C)(=O)=O)n2)cc1)c1cc(Cl)c(N2CCC(CO)CC2)c(C#N)c1 [Compound A90] | 500 to 2000
20 | CC(C)CNc1ncc(C(C)(C)c2ccc(OCc3ccnc(NS(C)(=O)=O)n3)cc2)cc1Cl [Compound A67] | > 2000
21 | CS(=O)(=O)NC12CC(COc3ccc4c(ccn4-c4cc(Cl)c(OCC(F)(F)F)c(C#N)c4)c3)(C1)C2 [Compound A167] | 500 to 2000
22 | CS(=O)(=O)Nc1ncc(Cn2ncc3ccc(-c4cc(Cl)c(OCCCl)c(C#N)c4)cc32)cn1 [Compound A143] | > 2000
23 | CS(=O)(=O)Nc1nccc(COc2ccc(-n3ccc4c(C#N)c(OCCCl)c(C#N)cc43)cc2)n1 [Compound A75] | > 2000
24 | CS(=O)(=O)Nc1nccc(COc2ccc3c(ccn3-c3ccn(CCCCl)c(=O)c3)c2)n1 [Compound A115] | > 2000
25 | Cc1cc(-c2ccc3c(ccn3-c3cc(Cl)c(OCCCl)c(C#N)c3)c2)ccc1CNS(C)(=O)=O [Compound A168] | < 500
26 | CS(=O)(=O)NC12CC(NCc3ccc4c(ccn4-c4cc(Cl)c(OCCCl)c(C#N)c4)c3)(C1)C2 [Compound A145] | 500 to 2000
27 | CS(=O)(=O)Nc1nccc(COc2ccc3c(ccn3-c3cc(Cl)c(OCC(Cl)(Cl)Cl)c(C#N)c3)c2)n1 [Compound A22] | > 2000
28 | CS(=O)(=O)Nc1nccc(COc2ccc3c(ccn3-c3cc(Cl)c(OC4CCC4)c(C#N)c3)c2)n1 [Compound A189] | 500 to 2000
29 | CS(=O)(=O)Nc1nccc(COc2ccc(-n3ccc4c(C#N)c(OCCCl)c(Cl)cc43)cc2)n1 [Compound A27] | 500 to 2000
30 | CC(C)(c1ccc(OCc2cnc(NS(C)(=O)=O)nc2N2CCCCC2)cc1)c1cc(Cl)c(OCCCl)c(C#N)c1 [Compound A99] | 500 to 2000
31 | CC(C)(c1ccc(OCc2cnc(NS(C)(=O)=O)nc2N2CCNCC2)cc1)c1cc(Cl)c(OCCCl)c(C#N)c1 [Compound A120] | < 500

Further lines, results first:

Row | IC50 [nM] | SMILES
32 | > 2000 | CS(=O)(=O)N1CC2(CN(Cc3ccc4c(ccn4-c4cc(Cl)c(OCCCl)c(C#N)c4)c3)C2)C1 [Compound A241, 3-chloro-2-(2-chloroethoxy)-5-(5-((6-(methylsulfonyl)-2,6-diazaspiro[3.3]heptan-2-yl)methyl)-1H-indol-1-yl)benzonitrile]
33 | 500 to 2000 | CS(=O)(=O)N1CCN(CCOc2ccc3c(ccn3-c3cc(Cl)c(OCCCl)c(C#N)c3)c2)CC1 [Compound A206]
34 | > 2000 | CC(C)(c1ccc(OCc2ccnc(NS(C)(=O)=O)n2)cc1)c1cc(F)c(N2CC(CO)C2)c(C#N)c1 [Compound A253]
35 | < 500 | CC(C)(c1ccc(OCC23CC(CNS(C)(=O)=O)(C2)C3)cc1)c1cc(Cl)c(OCCCl)c(C#N)c1 [Compound A277]
36 | > 2000 | CN(C1CCN(Cc2ccc3c(ccn3-c3cc(Cl)c(OCCCl)c(C#N)c3)c2)CC1)S(C)(=O)=O [Compound A237]
37 | 500 to 2000 | CC(C)(c1ccc(-c2cnc3nc(NS(C)(=O)=O)ccc3n2)cc1)c1cc(Cl)c(OCCCl)c(C#N)c1 [Compound A279]
38 | 500 to 2000 | CC(C)(c1ccc(-c2n[nH]c3nc(NS(C)(=O)=O)ncc23)cc1)c1cc(Cl)c(OCCCl)c(C#N)c1 [Compound A203]
39 | 500 to 2000 | CS(=O)(=O)N1CC2CC(Oc3ccc4c(ccn4-c4cc(Cl)c(OCCCl)c(C#N)c4)c3)CC2C1 (stereo not shown) [Compound A223]
40 | 500 to 2000 | CS(=O)(=O)N1C[C@H]2C[C@@H](Oc3ccc4c(ccn4-c4cc(Cl)c(OCCCl)c(C#N)c4)c3)C[C@H]2C1 [Compound A221]
41 | > 2000 | CC(C)(c1ccc(-c2cc3cnc(NS(C)(=O)=O)nn3c2)cc1)c1cc(Cl)c(OCCCl)c(C#N)c1 [Compound A263]
42 | 500 to 2000 | CC(C)(c1ccc(-c2cnc3c(c2)CCC(NS(C)(=O)=O)C3)cc1)c1cc(Cl)c(OCCCl)c(C#N)c1 (stereo not shown) [Compound A214]
43 | > 2000 | CC(C)(c1ccc(-c2ccc3oc(NS(C)(=O)=O)nc3n2)cc1)c1cc(Cl)c(OCCCl)c(C#N)c1 [Compound A281]
44 | 500 to 2000 | CC(C)(c1ccc(-c2ccc3sc(NS(C)(=O)=O)nc3c2)cc1)c1cc(Cl)c(OCCCl)c(C#N)c1 [Compound A275]
45 | > 2000 | CS(=O)(=O)NC1CCN(CCOc2ccc3c(ccn3-c3cc(Cl)c(OCCCl)c(C#N)c3)c2)CC1 [Compound A220]
46 | > 2000 | CC(C)(c1ccc(-c2c[nH]c3c(NS(C)(=O)=O)ncnc23)cc1)c1cc(Cl)c(OCCCl)c(C#N)c1 [Compound A211]
47 | > 2000 | CS(=O)(=O)N1CC2(CCN(Cc3ccc4c(ccn4-c4cc(Cl)c(OCCCl)c(C#N)c4)c3)CC2)C1 [Compound A235]
48 | > 2000 | CS(=O)(=O)N1CCCC1COc1ccc2c(ccn2-c2cc(Cl)c(OCCCl)c(C#N)c2)c1 (stereo not shown) [Compound A201]
49 | 500 to 2000 | CC(C)(c1ccc(-c2cnc3c(NS(C)(=O)=O)nccc3n2)cc1)c1cc(Cl)c(OCCCl)c(C#N)c1 [Compound A280]
